Experiments:
Type in all cases: cell-based
Zymoseptoria tritici = system: Zymoseptoria tritici
Fusarium graminearum = details: compound identified in active HPLC fraction; active when halo diameter superior to 5 mm
Puccinia striiformis = Puccinia striiformis liquid-based screening assay of extract fractions; details: compound identified in active HPLC fraction; active when percentage of inhibition superior to 50%

| Compound | Active against: (Zymoseptoria tritici) | Active against: (Fusarium graminearum) | Active against: (Puccinia striiformis) |
| --- | --- | --- | --- |
| CCCCCCCCCCCCCC(=O)NCCC[N+](C)(C)CC(=O)[O-] [N-Myristylamidopropyl-N,N-dimethylbetaine] | Z. tritici | F. graminearum | P. striiformis |
| C[C@@H]1C/C=C/C=C/C=C/C=C/[C@H](O[C@@H]2O[C@H](C)[C@@H](O)[C@H](N)[C@@H]2O)C[C@@H]2O[C@](O)(C[C@@H](O)C[C@H]3O[C@@H]3/C=C/C(=O)O1)C[C@H](O)[C@H]2C(=O)O [Pimaricin/Natamycin, Pimaricin, reference compound] | Z. tritici | F. graminearum | P. striiformis |
| C=C/C(C)=C/[C@H](C)C(=O)C[C@H](O)CC1CC(=O)NC(=O)C1 [Streptimidone] | Z. tritici | F. graminearum | P. striiformis |
| Albofungin | Z. tritici | F. graminearum | P. striiformis |
| Enactin Ia/Ib | Z. tritici | F. graminearum | P. striiformis |
| Lauramidopropyl betaine | Z. tritici | F. graminearum | P. striiformis |

— patent US20260083134A1, “MEANS AND METHODS FOR CONTROLLING PATHOGENS AND PESTS IN PLANTS” (APHEA.BIO NV, priority 2020, published 2026)
